According to patent US9301951B2 (Ardelyx, Inc., priority 2010, dated 2016):

Key:
NaPi2b = assay: Competition with phosphate: Pi uptake assay repeated at 2.1 vs 0.1 mM phosphate; assay type: cell-based; conditions: potency at 2.1 vs 0.1 mM phosphate
Excerpt: In certain preferred embodiments, the phosphate transport inhibitors of the present invention are not competitive inhibitors with respect to phosphate of Na/phosphate co-transport. In certain other preferred embodiments, the phosphate transport inhibitors of the invention are non-competitive inhibitors. Non-competitive inhibitors maintain their degree of inhibition irrespective of the local phosphate concentration. This feature is an important aspect in providing an efficient blockade of intestinal transport in postprandial state, where the local concentration of dietary phosphate can attain concentration as high as 10 mM. It is believed that competitive inhibitors are too sensitive to local phosphate concentration and unable to block phosphate uptake following a high phosphorus meal. Various methods are available for determining whether a phosphate transport inhibitor is non-competitive or competitive. For example, a phosphate uptake assay can be performed and the IC50 values for a compound at different phosphate concentrations can be determined (e.g., “Enzyme kinetics”, I. Segel, 1975, John-Wiley & Sons, p. 123). IC50 values for non-competitive inhibitors will remain the same or similar with respect to the phosphate concentration, whereas IC50 values for competitive inhibitors will increase (i.e. lose potency) as phosphate concentration increases. […]

[1] = Fecal recovery of orally administered compounds; assay type: in vivo; conditions: rat; oral gavage; feces collected until 48 hr after dosing
Excerpt: In this respect, it is understood that a recovered compound can include the sum of the parent compound and its metabolites derived from the parent compound, e.g., by means of hydrolysis, conjugation, reduction, oxidation, N-alkylation, glucuronidation, acetylation, methylation, sulfation, phosphorylation, or any other modification that adds atoms to or removes atoms from the parent compound, wherein the metabolites are generated via the action of any enzyme or exposure to any physiological environment including, pH, temperature, pressure, or interactions with foodstuffs as they exist in the digestive milieu. Measurement of fecal recovery of compound and metabolites can be carried out using standard methodology. For example, compound can be administered orally at a suitable dose (e.g., 10 mg/kg) and feces are then collected at predetermined times after dosing (e.g., 24 hours, 48 hours, 72 hours). Parent compound and metabolites can be extracted with organic solvent and analyzed quantitatively using mass spectrometry. A mass balance analysis of the parent compound and metabolites (including, parent=M, metabolite 1 [M+16], and metabolite 2 [M+32]) can be used to determine the percent recovery in the feces.
Quantitative determination of test compound level in feces after oral gavage was performed using the same set of animals used to determine test compound concentration in plasma (Example 352). The animals were kept in metabolic cages and feces were collected from the time of dosing until 48 hr after dosing. Upon collection, feces were dried by lyophilization and ground to a visually homogenous powder. Duplicate samples of ground feces from each individual animal were weighed out and extracted using organic solvent. Extracted samples were then diluted into mobile phase and test compound levels were quantitatively determined by LC-MS/MS analysis as described in Example 352 except that the standard curve was prepared in a feces matrix. Extraction conditions were not optimized for individual compounds, and thus may represent a minimal level of recovery.

Sprague-Dawley rats [2] = assay: In vivo bolus phosphorus challenge (serum phosphate elevation); conditions: rat; oral; drug dose 30; phosphate bolus 15 min after compound; serum 30 min post bolus
Method: By pretreating animals with a low phosphorus diet followed by the subsequent dosing of a phosphorus bolus, serum phosphorus levels were monitored after 30 minutes as a surrogate for intestinal phosphorus absorption. […] The in vivo bolus phosphorus challenge model used here mimics this model in rats.
Male, 7-week-old Sprague-Dawley rats (Charles-River laboratories international, Hollister, Calif.) were allowed to acclimatize for a minimum of 3 days before switching to a synthetic low-phosphorus diet (TD.85010, Harlan Teklad, Madison, Wis.) which contains 0.1% phosphorus and 0.6% calcium. At day 5, testing compounds or vehicle alone (as indicated) were orally administered at the indicated dose in a volume of 5 ml/kg, followed by a bolus gavage of monobasic sodium phosphate (1 mmol in 1 ml) 15 min after compound dosing. Serum was collected via retroorbital bleeding 30 min post phosphate bolus and phosphate levels were determined utilizing an ACE ALERA blood chemistry analyzer (Alfa Wassermann Diagnostic Technologies, West Caldwell, N.J.).
The extent of inhibition by test compounds on the elevation of serum phosphate levels in response to the bolus of phosphorus is shown in Table 12 (data are expressed as % Inhibition, with 6-10 animals per data point). The differences between groups were evaluated by one-way analysis of variance with Dunnett's post hoc tests.

Sprague-Dawley rats [3] = assay: In vivo co-dosing in chow (urine P out / P consumed); conditions: feed or water; rat; drug in chow, nominal 100 mg/kg/day (mean dose per line in table); urine 24-96 h; read-out: Mean % inhibition Urine Pout/P consumed
Excerpt: Male, 7-week-old Sprague-Dawley rats (Charles-River laboratories international, Hollister, Calif.) were allowed to acclimate for a minimum of 3 days. The experiment was initiated by switching animals to a synthetic diet (0.6% phosphorus and 0.6% calcium, Harlan Teklad TD.84122) for four days. After this time, the animals were placed into metabolic cages for daily monitoring of food and water consumption, as well as urine and fecal collections. Test compounds were incorporated into the powdered diet listed above containing 3% chocolate flavoring (w/w, BioServ #7345) at 1.3 mg test compound per gram of diet to achieve an average daily nominal dose of 100 mg/kg/day. The actual dose received by each animal was later determined by measuring prepared diet consumption and body weight. Urine samples were collected in three daily periods from 24-48, 48-72, and 72-96 hours of drug dosing. […] Phosphorus levels in the urine were determined by anion exchange chromatography using a Dionex ICS-3000 ion chromatography system. […] Elution of urine phosphate ions was monitored via conductivity detector and reported as ppm relative to a standard ion solution containing phosphate. Daily urinary P output relative to the P consumed in the prepared diet for each animal was calculated. […] The differences between the means of control and treated groups were evaluated by t tests. […]

[4] = Stability of compounds in simulated intestinal fluid (SIF); assay type: in vitro ADME; conditions: simulated intestinal fluid (USP, 3 mg/mL pancreatin), 1-20 μM, incubation time 6 hr, relative to t=0
Method: (§1) Test compounds were incubated at 1-20 μM in simulated gastric fluid (SGF; standard USP solution with 3 mg/mL pepsin) or simulated intestinal fluid (SIF; standard USP solution with 3 mg/mL pancreatin) for 3 hr or 6 hr. HPLC-UV or HPLC-MS were used to determine test compound levels using peak area %. Results (Table 14) were reported as the percentage of test compound remaining after incubation in a given condition relative to test compound present at t=0 in the same condition.

[5] = Stability of compounds in simulated gastric fluid (SGF); assay type: in vitro ADME; conditions: simulated gastric fluid (USP, 3 mg/mL pepsin), 1-20 μM, incubation time 6 hr, relative to t=0
Method: as §1

% recovered in feces [1] | % remaining, SIF [4] [%] | % remaining, SGF [5] [%] | Compound | Competitive with respect to Pi? (NaPi2b) | % Inhibition of Serum P elevation (Sprague-Dawley rats [2]) | inhibition in vivo at 100 mg/kg/day (Sprague-Dawley rats [3]) [%]
20-80% | – | – | O=C(O)CCSCc1cccc(C(=O)Nc2ccc(N3CCCCC3)cc2-c2cc(C(=O)NCc3cccc(C(F)(F)F)c3)ccn2)c1 [Example 1.1, 3-(3-((2-(4-((3-(trifluoromethyl)benzyl)carbamoyl)pyridin-2-yl)-4-(piperidin-1-yl)phenyl)carbamoyl)-benzylthio)propanoic acid] | No | 20-30% | –
20-80% | 80 | >80 | CCN(CC)c1ccc(NC(=O)c2cccc(C(=O)N(C)CCN3CCOCC3)c2)c(-c2cc(C(=O)NCc3cccc(C(F)(F)F)c3)ccn2)c1 [Example 25, N1-(4-(Diethylamino)-2-(4-((3-(trifluoromethyl)benzyl)carbamoyl)pyridin-2-yl)phenyl)-N3-methyl-N3-(2-morpholinoethyl)isophthalamide] | – | – | 10 to 30
